Earlier results as cited in article PMC9305358 (The Journal of Biological Chemistry, 2022).
Like-named read-outs stand apart in the source and are kept apart here.

Tests used:
ClpC1 NTD = conditions: crystal structure pdb6PBS, ref [25]; cited from earlier work
ClpC1 = conditions: cited from earlier work
Mtb cells = conditions: ref [19], [20], [21], [22]; cited from earlier work

Row | Substance | binding stoichiometry/mode at ClpC1 NTD (ClpC1 NTD) | effect on ClpC1 ATPase activity (ClpC1; ref [20], [21]) | toxicity to Mtb cells (Mtb cells) | effect on ClpC1 ATPase activity (ClpC1; ref [22])
1 | ecumicin | two ecumicin peptides bind to the NTD | increase ClpC1 ATPase activity | highly toxic to Mtb cells | –
2 | lassomycin | – | increase ClpC1 ATPase activity | highly toxic to Mtb cells | –
3 | rufomycin | – | – | highly toxic to Mtb cells | shows no impact
